What was measured:
Type in all cases: functional
Micrococcus luteus = test: Minimum inhibitory concentration required for the inhibition of Micrococcus luteus
Vibrio alginolyticus = test: Minimum inhibitory concentration required for the inhibition of Vibrio alginolyticus
Fusarium oxysporum = test: Minimum inhibitory concentration required for the inhibition of Fusarium oxysporum

Row | MIC (Micrococcus luteus) | MIC (Vibrio alginolyticus) | MIC (Fusarium oxysporum) | SMILES
1 | 1000 µg/mL | 2000 µg/mL | – | CCCCCCCCCCCCCCCCCCCCCCCCCCCCCC(=O)OC[C@@H]1OC(OCCC[N+](C)(C)C)[C@@H](O)[C@@H](O)[C@@H]1O.[I-] (some centres undefined)
2 | 50 µg/mL | 2000 µg/mL | – | CCCCCCCCCCCCCCCCCCCCCCCCCC(=O)OC[C@@H]1OC(OCCC[N+](C)(C)C)[C@@H](O)[C@@H](O)[C@@H]1O.[I-] (some centres undefined)
3 | 2000 µg/mL | 2000 µg/mL | – | CCCCCCCCCCCCCCCCCC(=O)OC[C@@H]1OC(OCCC[N+](C)(C)C)[C@@H](O)[C@@H](O)[C@@H]1O.[I-] (some centres undefined)
4 | 10 µg/mL | 500 µg/mL | 500 µg/mL | CCCCCCCCCCCCCCCCCCCCCC(=O)OC[C@@H]1OC(OCCC[N+](C)(C)C)[C@@H](O)[C@@H](O)[C@@H]1O.[I-] (some centres undefined)

Reference: ChEMBL document CHEMBL1130463, “Chemoenzymatic synthesis and characterization of a new type of carbohydrate-based cationic antimicrobial agents” (1997)
